PubChem BioAssay AID1963860 (Molecular Pharmacology Branch, DTP, NCI, 2024)

Tested on: CN0375-F725-PDC KRAS spheroid viability
Assay: Anticancer human tumor CN0375-F725-PDC patient-derived colon carcinoma cell line growth inhibition [KRAS2]
Details: spheroids with HUVEC and MSC; for IC50: curve of first compound; for viability, T/C: stronger effect = lower value
Summary of the method: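 Combination screen of spheroid viability in tumor-cell co-cultures with endothelial (HUVEC) and mesenchymal stem cell stroma. Each agent was tested in half-log dilutions, topping at clinical Cmax or at 10 microM without a known Cmax.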

[1] = second compound 0.0316 µM, first compound 0.01 µM
[2] = second compound 0.0316 µM, first compound 0.0316 µM
[3] = second compound 0.0316 µM, first compound 0.1 µM
[4] = second compound 0.0316 µM, first compound 0.316 µM
[5] = second compound 0.0316 µM, first compound 1 µM
[6] = second compound 0.0316 µM, first compound 3.16 µM
[7] = second compound 0.1 µM, first compound 0.01 µM
[8] = second compound 0.1 µM, first compound 0.0316 µM
[9] = second compound 0.1 µM, first compound 0.1 µM
[10] = second compound 0.1 µM, first compound 0.316 µM
[11] = second compound 0.1 µM, first compound 1 µM
[12] = second compound 0.1 µM, first compound 3.16 µM
[13] = second compound 0.316 µM, first compound 0.01 µM
[14] = second compound 0.316 µM, first compound 0.0316 µM
[15] = second compound 0.316 µM, first compound 0.1 µM
[16] = second compound 0.316 µM, first compound 0.316 µM
[17] = second compound 0.316 µM, first compound 1 µM
[18] = second compound 0.316 µM, first compound 3.16 µM
[19] = second compound 1 µM, first compound 0.01 µM
[20] = second compound 1 µM, first compound 0.0316 µM
[21] = second compound 1 µM, first compound 0.1 µM
[22] = second compound 1 µM, first compound 0.316 µM
[23] = second compound 1 µM, first compound 1 µM
[24] = second compound 1 µM, first compound 3.16 µM
[25] = second compound 3.16 µM, first compound 0.01 µM
[26] = second compound 3.16 µM, first compound 0.0316 µM
[27] = second compound 3.16 µM, first compound 0.1 µM
[28] = second compound 3.16 µM, first compound 0.316 µM
[29] = second compound 3.16 µM, first compound 1 µM
[30] = second compound 3.16 µM, first compound 3.16 µM
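Further: spheroids exposed to agents for 7 days.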

| Compound | IC50 (second compound 0.0316 µM) [µM] | IC50 (second compound 0.1 µM) [µM] | IC50 (second compound 0.316 µM) [µM] | IC50 (second compound 1 µM) [µM] | IC50 (second compound 3.16 µM) [µM] | viability, T/C [2] [%] | viability, T/C [3] [%] | viability, T/C [4] [%] | viability, T/C [5] [%] | viability, T/C [8] [%] | viability, T/C [9] [%] | viability, T/C [10] [%] | viability, T/C [11] [%] | viability, T/C [14] [%] | viability, T/C [15] [%] | viability, T/C [16] [%] | viability, T/C [17] [%] | viability, T/C [20] [%] | viability, T/C [21] [%] | viability, T/C [22] [%] | other results |
| --- | --- | --- | --- | --- | --- | --- | --- | --- | --- | --- | --- | --- | --- | --- | --- | --- | --- | --- | --- | --- | --- |
| CC1COCCN1c1cc(-c2ccnn2C)c2ccnc(-c3ccn[nH]3)c2n1 (stereo not given) + C=CC(=O)N1CCN(c2nc(OCC3CCCN3C)nc3c2CCN(c2cccc4cccc(C)c24)C3)CC1CC#N | > 3.16 | > 3.16 | > 3.16 | > 3.16 | < 0.01 | 94.6 | 84.8 | 84.6 | 68.4 | 98.4 | 81.4 | 79.3 | 65.7 | 93.4 | 84.6 | 78.5 | 65.2 | 88.3 | 75.1 | 71 | viability, T/C [1]: 109%; viability, T/C [6]: 57.2%; viability, T/C [7]: 99.8%; viability, T/C [12]: 53.4%; viability, T/C [13]: 98%; viability, T/C [18]: 55.6%; viability, T/C [19]: 88.1%; viability, T/C [23]: 66.5%; viability, T/C [24]: 51%; viability, T/C [25]: 36.8%; viability, T/C [26]: 35.9%; viability, T/C [27]: 24.4%; viability, T/C [28]: 25%; viability, T/C [29]: 17.5%; viability, T/C [30]: 20.5% |
| CCN1CCN(Cc2ccc(Nc3ncc(F)c(-c4cc(F)c5nc(C)n(C(C)C)c5c4)n3)nc2)CC1 + C=CC(=O)N1CCN(c2nc(OCC3CCCN3C)nc3c2CCN(c2cccc4cccc(C)c24)C3)CC1CC#N | > 1 | > 1 | > 1 | > 1 | < 0.00316 | 90.5 | 91.8 | 111 | 99.8 | 88.1 | 94.6 | 104 | 91.2 | 85.5 | 89.4 | 95.2 | 91.5 | 86.9 | 83.9 | 85.1 | viability, T/C (second compound 0.0316 µM, first compound 0.00316 µM): 110%; viability, T/C [1]: 94.4%; viability, T/C (second compound 0.1 µM, first compound 0.00316 µM): 103%; viability, T/C [7]: 96.8%; viability, T/C (second compound 0.316 µM, first compound 0.00316 µM): 104%; viability, T/C [13]: 99.7%; viability, T/C (second compound 1 µM, first compound 0.00316 µM): 95.4%; viability, T/C [19]: 99.6%; viability, T/C [23]: 89.8%; viability, T/C (second compound 3.16 µM, first compound 0.00316 µM): 34.7%; viability, T/C [25]: 31.3%; viability, T/C [26]: 17.9%; viability, T/C [27]: 15.3%; viability, T/C [28]: 20.3%; viability, T/C [29]: 1.83% |
| CCNC(=O)CC1N=C(c2ccc(Cl)cc2)c2cc(OC)ccc2-n2c(C)nnc21 (stereo not given) + C=CC(=O)N1CCN(c2nc(OCC3CCCN3C)nc3c2CCN(c2cccc4cccc(C)c24)C3)CC1CC#N | > 10 | > 10 | > 10 | 6.11 | < 0.0316 | 97.8 | 96.6 | 83.2 | 83 | 101 | 92.8 | 81.4 | 78.6 | 97.1 | 88.6 | 77.8 | 75.1 | 88.1 | 85.6 | 73.3 | viability, T/C [6]: 69.3%; viability, T/C (second compound 0.0316 µM, first compound 10 µM): 54%; viability, T/C [12]: 67.2%; viability, T/C (second compound 0.1 µM, first compound 10 µM): 53.2%; viability, T/C [18]: 68.4%; viability, T/C (second compound 0.316 µM, first compound 10 µM): 53.8%; viability, T/C [23]: 65.6%; viability, T/C [24]: 60.1%; viability, T/C (second compound 1 µM, first compound 10 µM): 43.4%; viability, T/C [26]: 30.2%; viability, T/C [27]: 28%; viability, T/C [28]: 15.5%; viability, T/C [29]: 1.05%; viability, T/C [30]: 13.8%; viability, T/C (second compound 3.16 µM, first compound 10 µM): 6.65% |
